Experimental data from PubChem BioAssay AID248 (DTP/NCI, 2004).
Where “and” joins values, the source holds several entries; their conditions need not be identical. Identical values can stand only once. Inconclusive results and toxic doses are left out. No stated cut-off is given here; in the data, active means T/C of 150% or more; inactive means T/C below 125%.

Tested on: L1210 leukemia ip in BDF1 mice, survival T/C
Assay: NCI In Vivo Anticancer Drug Screen. Data for tumor model L1210 Leukemia (intraperitoneal) in B6D2F1 (BDF1) mice
Conditions: endpoint: mean survival time, higher = longer survival
In short: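 Tumor cells were implanted, animals were treated, and survival was followed. The result divides the treated measurement by the vehicle-control measurement.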

[1] = dose: 50.0 mg/kg/injection, schedule: Q01DX009 (ip), vehicle: saline with Tween-80
[2] = dose: 100.0 mg/kg/injection, schedule: Q01DX009 (ip), vehicle: saline with Tween-80
[3] = dose: 200.0 mg/kg/injection, schedule: Q01DX009 (ip), vehicle: saline with Tween-80
[4] = dose: 100.0 mg/kg/injection, schedule: Q04DX002 (ip), vehicle: saline with Tween-80
[5] = dose: 200.0 mg/kg/injection, schedule: Q04DX002 (ip), vehicle: saline with Tween-80
[6] = dose: 400.0 mg/kg/injection, schedule: Q01DX009 (ip), vehicle: saline with Tween-80
[7] = dose: 100.0 mg/kg/injection, schedule: Q04DX002 (ip), vehicle: Klucel (hydroxypropylcellulose) (HPC)
[8] = dose: 200.0 mg/kg/injection, schedule: Q04DX002 (ip), vehicle: Klucel (hydroxypropylcellulose) (HPC)
[9] = dose: 100.0 mg/kg/injection, schedule: Q01DX009 (ip), vehicle: saline
[10] = dose: 200.0 mg/kg/injection, schedule: Q01DX009 (ip), vehicle: saline
[11] = dose: 400.0 mg/kg/injection, schedule: Q01DX009 (ip), vehicle: saline

Measured: T/C

CC12CCC(C1)C(C)(C)C2C(N)=O (stereo not drawn)
inactive: dose: 100.0 mg/kg/injection, schedule: Q04DX003 (ip), vehicle: Klucel (hydroxypropylcellulose) (HPC) 93 % of control | dose: 200.0 mg/kg/injection, schedule: Q04DX003 (ip), vehicle: Klucel (hydroxypropylcellulose) (HPC) 93 % of control

[N-]=[N+]=NC1=C(c2ccccc2)C(=O)C(N=[N+]=[N-])=C(c2ccccc2)C1=O
inactive: dose: 100.0 mg/kg/injection, schedule: Q01DX001 (ip), vehicle: saline 88 % of control | dose: 200.0 mg/kg/injection, schedule: Q01DX001 (ip), vehicle: saline 95 % of control | dose: 400.0 mg/kg/injection, schedule: Q01DX001 (ip), vehicle: saline 90 % of control

CC(=O)OCC1OC(n2ccc3c(=O)[nH]cnc32)C(OC(C)=O)C1OC(C)=O (stereo not drawn)
inactive: dose: 25.0 mg/kg/injection, schedule: Q01DX015 (ip), vehicle: carboxymethylcellulose (CMC) 121 % of control | dose: 50.0 mg/kg/injection, schedule: Q01DX001 (ip), vehicle: carboxymethylcellulose (CMC) 94 % of control | dose: 50.0 mg/kg/injection, schedule: Q01DX015 (ip), vehicle: carboxymethylcellulose (CMC) 112 % of control | dose: 100.0 mg/kg/injection, schedule: Q01DX001 (ip), vehicle: carboxymethylcellulose (CMC) 96 % of control | dose: 200.0 mg/kg/injection, schedule: Q01DX001 (ip), vehicle: carboxymethylcellulose (CMC) 100 % of control | dose: 400.0 mg/kg/injection, schedule: Q01DX001 (ip), vehicle: carboxymethylcellulose (CMC) 102 % of control

CCOC(=O)C(C#N)=P(c1ccccc1)(c1ccccc1)c1ccccc1
inactive: [1] 96 % of control | [2] 88 % of control | [3] 96 % of control

CCCCCCCC/C=C/CCCCCCCCC1=NCCN1CCO
inactive: dose: 2.5 mg/kg/injection, schedule: Q01DX009 (ip), vehicle: saline 104 % of control | dose: 5.0 mg/kg/injection, schedule: Q01DX009 (ip), vehicle: saline 93 % of control | dose: 10.0 mg/kg/injection, schedule: Q01DX001 (ip), vehicle: saline 90 % of control | dose: 10.0 mg/kg/injection, schedule: Q01DX009 (ip), vehicle: saline 104 % of control | dose: 20.0 mg/kg/injection, schedule: Q01DX001 (ip), vehicle: saline 92 % of control

O=C(/C=C\c1cccc2ccccc12)c1ccc2ccccc2c1
inactive: [2] 100 % of control | [4] 88 % of control | [3] 90 % of control | [5] 88 % of control | [6] 93 % of control | dose: 400.0 mg/kg/injection, schedule: Q04DX002 (ip), vehicle: saline with Tween-80 88 % of control

NC(N)=N/N=C/C(Cl)Cl
inactive: dose: 15.0 mg/kg/injection, schedule: Q01DX Z (ip), vehicle: carboxymethylcellulose (CMC) 103 % of control | dose: 25.0 mg/kg/injection, schedule: Q01DX009 (ip), vehicle: saline with Tween-80 100 % of control | dose: 30.0 mg/kg/injection, schedule: Q01DX Z (ip), vehicle: carboxymethylcellulose (CMC) 97 % of control | dose: 30.0 mg/kg/injection, schedule: Q01DX Z (oral), vehicle: carboxymethylcellulose (CMC) 92 % of control | dose: 37.0 mg/kg/injection, schedule: Q01DX Z (oral), vehicle: carboxymethylcellulose (CMC) 113 % of control | [1] 103 % of control | dose: 50.0 mg/kg/injection, schedule: Q04DX003 (ip), vehicle: saline 98 % of control | dose: 60.0 mg/kg/injection, schedule: Q01DX Z (ip), vehicle: carboxymethylcellulose (CMC) 111 % of control | dose: 60.0 mg/kg/injection, schedule: Q01DX Z (oral), vehicle: carboxymethylcellulose (CMC) 121 % of control | dose: 75.0 mg/kg/injection, schedule: Q01DX001 (oral), vehicle: carboxymethylcellulose (CMC) 113 % of control | dose: 75.0 mg/kg/injection, schedule: Q01DX Z (oral), vehicle: carboxymethylcellulose (CMC) 107 % of control | [2] 121 % of control | dose: 100.0 mg/kg/injection, schedule: Q04DX003 (ip), vehicle: saline 102 % of control | dose: 150.0 mg/kg/injection, schedule: Q01DX001 (oral), vehicle: carboxymethylcellulose (CMC) 104 % of control | dose: 300.0 mg/kg/injection, schedule: Q01DX001 (oral), vehicle: carboxymethylcellulose (CMC) 104 % of control | dose: 300.0 mg/kg/injection, schedule: Q01DX Z (oral), vehicle: carboxymethylcellulose (CMC) 113 % of control | dose: 600.0 mg/kg/injection, schedule: Q01DX001 (oral), vehicle: carboxymethylcellulose (CMC) 117 % of control

CC(C)CC1NC(=O)C(NC(=O)C(Cc2ccccc2)N(C)C)C(C(C)C)Oc2ccc(cc2)/C=C\NC1=O (stereo not drawn)
inactive: dose: 50.0 mg/kg/injection, schedule: Q01DX001 (ip), vehicle: Klucel (hydroxypropylcellulose) (HPC) 90 % of control | dose: 100.0 mg/kg/injection, schedule: Q01DX001 (ip), vehicle: Klucel (hydroxypropylcellulose) (HPC) 90 % of control | dose: 200.0 mg/kg/injection, schedule: Q01DX001 (ip), vehicle: Klucel (hydroxypropylcellulose) (HPC) 93 % of control

COc1ccc(Nc2cccc(Cl)c2)c(C(=O)O)c1
inactive: dose: 40.0 mg/kg/injection, schedule: Q01DX009 (ip), vehicle: saline 100 % of control | dose: 75.0 mg/kg/injection, schedule: Q01DX001 (ip), vehicle: saline 98 % of control | dose: 75.0 mg/kg/injection, schedule: Q01DX009 (ip), vehicle: saline 87 % of control | dose: 150.0 mg/kg/injection, schedule: Q01DX001 (ip), vehicle: saline 90 % of control | dose: 150.0 mg/kg/injection, schedule: Q01DX009 (ip), vehicle: saline 87 % of control

COc1ccc(/C=C/C(=O)c2ccccc2)cc1
inactive: [2] 93 % of control and 101 % of control | dose: 100.0 mg/kg/injection, schedule: Q04DX003 (ip), vehicle: saline with Tween-80 93 % of control | [3] 95 % of control and 96 % of control | dose: 200.0 mg/kg/injection, schedule: Q04DX003 (ip), vehicle: saline with Tween-80 96 % of control | [6] 111 % of control and 91 % of control | dose: 400.0 mg/kg/injection, schedule: Q04DX003 (ip), vehicle: saline with Tween-80 104 % of control

CCO/C=N\c1c(C#N)c(CC#N)nn1C
inactive: [7] 102 % of control | [8] 98 % of control | dose: 400.0 mg/kg/injection, schedule: Q04DX002 (ip), vehicle: Klucel (hydroxypropylcellulose) (HPC) 102 % of control

CCCCSP(Oc1ccccc1)SCCCC
inactive: dose: 100.0 mg/kg/injection, schedule: Q01DX009 (ip), vehicle: Klucel (hydroxypropylcellulose) (HPC) 89 % of control

O=C1CSCC(=O)N1
inactive: [9] 102 % of control | [10] 97 % of control | [11] 103 % of control

Cc1cc(C)c(NC(=O)/C=C/C(=O)O)c(C)c1
inactive: [4] 91 % of control and 92 % of control | [5] 94 % of control and 99 % of control | dose: 800.0 mg/kg/injection, schedule: Q04DX002 (ip), vehicle: saline with Tween-80 103 % of control

CCOC(=O)Cc1nc2ccccc2[nH]c1=O
inactive: dose: 50.0 mg/kg/injection, schedule: Q04DX002 (ip), vehicle: Klucel (hydroxypropylcellulose) (HPC) 107 % of control | [7] 96 % of control | [8] 96 % of control

Nc1nc(N)c2nc3c(nc2n1)C(=O)N(c1ccc(C(=O)NC(CCC(=O)O)C(=O)O)cc1)C3 (stereo not drawn)
inactive: [9] 94 % of control | [10] 98 % of control | [11] 86 % of control

CC(=O)OC1OC(CF)C(OC(C)=O)C1OC(C)=O (stereo not drawn)
inactive: [2] 92 % of control
